Measured values as given in paper PMC9763333, “In vitro characterization of immune modulating drug-eluting immunobeads towards transarterial embolization in cancer” (Scientific Reports, 2022).
Several values for one entry are separate records, joined by “and”; a condition that tells them apart may be missing. Equal entries are not always repeated. Entries after “also recorded” stand apart in the source; their conditions may differ.

How the values were obtained:
Format in all cases: physicochemical
[1] = Drug loading into DC Bead LUMI
Procedure: DC Bead LUMI was analyzed for its elemental composition by MEDAC Inc. […] Drug loading was performed in triplicate as previously reported[45] with slight modifications. […] Washing of beads is often a critical step in drug release studies as any drug left unbound to the beads affects the release profile and exaggerates the early burst release. […] However, washing was discontinued for TLR drugs as drug was continually observed even after multiple washes. […] The amount of drug loaded at the specified time points was calculated by subtracting the amount of drug remaining from the initial amount of drug in the loading solution and the cumulative amount of drug withdrawn for sampling. The maximum drug loaded in the beads was calculated once no further change in the concentration in the loading solution could be measured and before washing the beads. The relative percent drug loaded was defined as the maximum amount of drug loaded as a percent of the amount of SO3^- ions available in the beads on a molar basis using the following formula and the results are presented as the mean ± SD.

[2] = Drug solubilization by salt formation in acid; settings: T in °C in parentheses in the cell (20.1 or 21.1)
Procedure: The base form of each drug was suspended in deionized water and titrated with 0.1 N hydrochloric acid (Fisher Scientific, Hampton, NH) while stirring until all the base was solubilized and the volume adjusted to a final concentration of 2.5 mg/mL. The resulting solution was frozen, then lyophilized to yield solid drug-hydrochloride salt or used in its solubilized form for loading into DC Bead LUMI. […] Doxorubicin.HCl was readily solubilized and used without modification. […] A ZORBAX Eclipse Plus C8 reversed-phase column (Agilent) and UV detector at wavelength of 230 nm were used for GS-9620 analysis. The decomposition product of GS-9620 was analyzed with reversed phase high-performance liquid chromatography (Rp-HPLC) and LC/MS.

[3] = Washing of drug-loaded beads with deionized water and microscopic appearance
Procedure: Drug loading was performed in triplicate as previously reported[45] with slight modifications. […] Washing of beads is often a critical step in drug release studies as any drug left unbound to the beads affects the release profile and exaggerates the early burst release. […] However, washing was discontinued for TLR drugs as drug was continually observed even after multiple washes. […] The amount of drug loaded at the specified time points was calculated by subtracting the amount of drug remaining from the initial amount of drug in the loading solution and the cumulative amount of drug withdrawn for sampling. The maximum drug loaded in the beads was calculated once no further change in the concentration in the loading solution could be measured and before washing the beads. The relative percent drug loaded was defined as the maximum amount of drug loaded as a percent of the amount of SO3^- ions available in the beads on a molar basis using the following formula and the results are presented as the mean ± SD.

[4] = Drug release from DC Bead LUMI in saline; settings: for release in saline from DC Bead LUMI after multiple washes in deionized water: single replicates
Procedure: […] Briefly, drug-loaded DC Bead LUMI or LC Bead (62.5 µL) were placed in vessels with 50 mL of saline ([…], pH 7.4) and were agitated with upright rocking motion at a set maximum rocking speed of 10 (70 rpm) for 144 h at 37 °C using Ward's® Rotating Mixer. At scheduled time intervals identical to the loading time points, 1 mL of release media was withdrawn and used for drug quantification. To maintain 50 mL total elution volume, 1 mL of fresh saline pre heated to 37 °C was replaced at each timepoint. […] 2.4. The cumulative amount of drug released at each time point was calculated by multiplying the concentration of each sample aliquot by the total volume (50 mL) of release media and adding the sum of the amount of drug removed for sampling at prior time points. […] The 50 mL volume was chosen to ensure infinite sink conditions where the maximum possible concentration of eluted drug would be at least 10 times more dilute than the maximum solubility. This ensures the rate of release is not affected by solution concentration but is only a function of interactions of the bead, drug, and saline.

Relative percent drug loaded in DC Bead LUMI over time ([1]; 5 min, single replicates): 27.7169% and 54.7567% and 47.2582% | Relative percent drug loaded in DC Bead LUMI over time ([1]; 15 min, single replicates): 44.3244% and 64.1912% and 77.4846% | Relative percent drug loaded in DC Bead LUMI over time ([1]; 30 min, single replicates): 53.7652% and 98.7583% and 64.7248% | Relative percent drug loaded in DC Bead LUMI over time ([1]; 45 min, single replicates): 63.5604% and 86.8486% and 80.4348% | Relative percent drug loaded in DC Bead LUMI over time ([1]; 60 min, single replicates): 62.6391% and 89.327% and 89.6722% | Relative percent drug loaded in DC Bead LUMI over time ([1]; 120 min, single replicates): 76.6569% and 94.7702% and 91.6603% | Relative percent drug loaded in DC Bead LUMI over time ([1]; 180 min, single replicates): 84.3868% and 95.4708% and 91.4628% | Relative percent drug loaded in DC Bead LUMI over time ([1]; 240 min, single replicates): 88.4335% and 96.0638% and 91.7809% | Relative percent drug loaded in DC Bead LUMI over time ([1]; 300 min, single replicates): 89.1562% and 94.7965% and 91.1063% | Relative percent drug loaded in DC Bead LUMI over time ([1]; 360 min, single replicates): 89.8821% and 93.7278% and 90.6691% | Relative percent drug loaded in DC Bead LUMI over time ([1]; 420 min, single replicates): 89.552% and 95.0881% and 90.3963% | Relative percent drug loaded in DC Bead LUMI over time ([1]; 480 min, single replicates): 88.9036% and 95.9382% and 95.3273% | Relative percent drug loaded in DC Bead LUMI over time ([1]; 1440 min, single replicates): 88.6238% and 94.7298% and 89.6159% | Relative percent drug loaded in DC Bead LUMI over time ([1]; 2880 min, single replicates): 89.5863% and 97.1979% and 88.3669% | Relative percent drug loaded in DC Bead LUMI over time ([1]; 4320 min, single replicates): 89.4163% and 95.3897% and 90.7133% | Relative percent drug loaded in DC Bead LUMI over time ([1]; 8640 min, single replicates): 89.5369% and 92.0678% and 86.7361% | loading behaviour ([1]; DC Bead LUMI): Fast loading | Relative percent drug loaded (maximum, percent of SO3− available on a molar basis) ([1]; DC Bead LUMI, mean (n = 3)): 95% and 94.66% | equivalent of drug loaded to sulfonated bead ([1]; DC Bead LUMI, mean ± SD): 0.27 ± 0.01 mM drug/ml beads | Maximum drug loaded ([1]; DC Bead LUMI, mean ± SD, n = 3, base form except Dox (salt form)): 65.28 ± 3.09 mg drug/ml beads | Maximum drug loaded (Triplicate), % ([1]; DC Bead LUMI, single replicates): 89.8821% and 98.7583% and 95.3273% | Drug: sulfonate ([1]; molar ratio at maximum loading, DC Bead LUMI): 0.946 | Theoretical maximum loading level based on SO3− contents ([1]; per mL DC Bead LUMI, assuming 1:1 drug to sulfonate): 68.97 mg | pH at which each drug dissolved for loading [2]: 2.06 (20.1) | removal of drug from beads by repeated washing with deionized water ([3]; DC Bead LUMI): partially removed | release behaviour in saline ([4]; DC Bead LUMI): rapid release
SMILES: CC(C)Cn1cnc2c(N)nc3ccccc3c21 [IMQ, imiquimod]
aggregation of drug during washing / elution ([3]; deionized water and saline, microscopy): Aggregation of IMQ was observed; also recorded: formed aggregates; also recorded: exhibited aggregation | release in saline from DC Bead LUMI after multiple washes in deionized water ([4]; 5 min): 3.738 mg/mL of beads and 1.905 mg/mL of beads and 0.7403 mg/mL of beads | release in saline from DC Bead LUMI after multiple washes in deionized water ([4]; 15 min): 4.599 mg/mL of beads and 2.598 mg/mL of beads and 1.25 mg/mL of beads | release in saline from DC Bead LUMI after multiple washes in deionized water ([4]; 30 min): 6.014 mg/mL of beads and 2.518 mg/mL of beads and 1.755 mg/mL of beads | release in saline from DC Bead LUMI after multiple washes in deionized water ([4]; 45 min): 5.636 mg/mL of beads and 3.25 mg/mL of beads and 2.648 mg/mL of beads | release in saline from DC Bead LUMI after multiple washes in deionized water ([4]; 60 min): 6.005 mg/mL of beads and 3.196 mg/mL of beads and 2.336 mg/mL of beads | release in saline from DC Bead LUMI after multiple washes in deionized water ([4]; 120 min): 7.034 mg/mL of beads and 4.188 mg/mL of beads and 2.86 mg/mL of beads | release in saline from DC Bead LUMI after multiple washes in deionized water ([4]; 180 min): 9.042 mg/mL of beads and 4.426 mg/mL of beads and 3.116 mg/mL of beads | release in saline from DC Bead LUMI after multiple washes in deionized water ([4]; 240 min): 8.512 mg/mL of beads and 4.6972 mg/mL of beads and 3.19 mg/mL of beads | release in saline from DC Bead LUMI after multiple washes in deionized water ([4]; 300 min): 8.8991 mg/mL of beads and 4.841 mg/mL of beads and 3.452 mg/mL of beads | release in saline from DC Bead LUMI after multiple washes in deionized water ([4]; 360 min): 9.596 mg/mL of beads and 5.306 mg/mL of beads and 3.529 mg/mL of beads | release in saline from DC Bead LUMI after multiple washes in deionized water ([4]; 420 min): 9.49 mg/mL of beads and 5.808 mg/mL of beads and 4.0861 mg/mL of beads | release in saline from DC Bead LUMI after multiple washes in deionized water ([4]; 480 min): 9.552 mg/mL of beads and 5.445 mg/mL of beads and 3.722 mg/mL of beads | release in saline from DC Bead LUMI after multiple washes in deionized water ([4]; 1440 min): 10.8637 mg/mL of beads and 7.881 mg/mL of beads and 6.056 mg/mL of beads | release in saline from DC Bead LUMI after multiple washes in deionized water ([4]; 2880 min): 12.3732 mg/mL of beads and 7.686 mg/mL of beads and 6.267 mg/mL of beads | release in saline from DC Bead LUMI after multiple washes in deionized water ([4]; 4320 min): 15.5973 mg/mL of beads and 8.751 mg/mL of beads and 7.964 mg/mL of beads | release in saline from DC Bead LUMI after multiple washes in deionized water ([4]; 8640 min): 14.5448 mg/mL of beads and 10.1106 mg/mL of beads and 7.947 mg/mL of beads
